How the values were obtained:
Format in all cases: cell-based
[1] = target: carboxylic acid reductase (CAR) (Nocardia iowensis, UniProt Q6RKB1); test: whole-cell aldehyde formation; conditions: E. coli RARE cells co-expressing SFP; MMV medium, 5 mM, 24 °C
[2] = target: T1, 5-Hydroxymethylfurfural (HMF) oxidase (HMFO) (Methylovorus sp. MP688, UniProt E4QP00); test: whole-cell alcohol oxidation; conditions: O2 as oxidant; E. coli RARE cells, 5 mM, 2 h
T1 construct: gene MPQ_0130; flavoprotein, pBAD vector, expressed in E. coli K-12 MG1655 (RARE); no mutations told
T1 sequence (E4QP00 1-531): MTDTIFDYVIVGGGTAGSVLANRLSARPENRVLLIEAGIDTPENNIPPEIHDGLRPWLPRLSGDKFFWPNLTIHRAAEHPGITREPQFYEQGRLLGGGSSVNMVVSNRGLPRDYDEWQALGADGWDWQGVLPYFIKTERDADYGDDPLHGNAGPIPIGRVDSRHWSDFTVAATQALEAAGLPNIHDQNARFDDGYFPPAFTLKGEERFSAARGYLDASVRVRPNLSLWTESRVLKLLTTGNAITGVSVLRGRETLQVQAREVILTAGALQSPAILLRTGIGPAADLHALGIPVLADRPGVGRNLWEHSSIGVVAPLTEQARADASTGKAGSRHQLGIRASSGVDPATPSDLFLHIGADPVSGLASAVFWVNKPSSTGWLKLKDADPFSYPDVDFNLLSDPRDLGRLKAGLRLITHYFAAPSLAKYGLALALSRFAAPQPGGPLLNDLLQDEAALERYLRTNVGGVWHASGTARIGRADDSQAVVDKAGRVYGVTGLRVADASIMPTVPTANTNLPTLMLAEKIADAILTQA

[3] = target: T2, feruloyl CoA synthase (FCS, Atfcs) (Amycolatopsis thermoflava, UniProt Z9FW54HPU9); test: whole-cell aldehyde formation; conditions: E. coli RARE cells co-expressing ECH hydratase/aldolase, which completes the conversion to aldehyde; MMV medium, 5 mM, 24 °C
T2 construct: pETDuet-1, co-expressed with enoyl-CoA hydratase/aldolase Atech of the same strain in E. coli K-12 MG1655 (RARE)

Chain of carboxylic acid reductase (CAR) (Q6RKB1 2-1174): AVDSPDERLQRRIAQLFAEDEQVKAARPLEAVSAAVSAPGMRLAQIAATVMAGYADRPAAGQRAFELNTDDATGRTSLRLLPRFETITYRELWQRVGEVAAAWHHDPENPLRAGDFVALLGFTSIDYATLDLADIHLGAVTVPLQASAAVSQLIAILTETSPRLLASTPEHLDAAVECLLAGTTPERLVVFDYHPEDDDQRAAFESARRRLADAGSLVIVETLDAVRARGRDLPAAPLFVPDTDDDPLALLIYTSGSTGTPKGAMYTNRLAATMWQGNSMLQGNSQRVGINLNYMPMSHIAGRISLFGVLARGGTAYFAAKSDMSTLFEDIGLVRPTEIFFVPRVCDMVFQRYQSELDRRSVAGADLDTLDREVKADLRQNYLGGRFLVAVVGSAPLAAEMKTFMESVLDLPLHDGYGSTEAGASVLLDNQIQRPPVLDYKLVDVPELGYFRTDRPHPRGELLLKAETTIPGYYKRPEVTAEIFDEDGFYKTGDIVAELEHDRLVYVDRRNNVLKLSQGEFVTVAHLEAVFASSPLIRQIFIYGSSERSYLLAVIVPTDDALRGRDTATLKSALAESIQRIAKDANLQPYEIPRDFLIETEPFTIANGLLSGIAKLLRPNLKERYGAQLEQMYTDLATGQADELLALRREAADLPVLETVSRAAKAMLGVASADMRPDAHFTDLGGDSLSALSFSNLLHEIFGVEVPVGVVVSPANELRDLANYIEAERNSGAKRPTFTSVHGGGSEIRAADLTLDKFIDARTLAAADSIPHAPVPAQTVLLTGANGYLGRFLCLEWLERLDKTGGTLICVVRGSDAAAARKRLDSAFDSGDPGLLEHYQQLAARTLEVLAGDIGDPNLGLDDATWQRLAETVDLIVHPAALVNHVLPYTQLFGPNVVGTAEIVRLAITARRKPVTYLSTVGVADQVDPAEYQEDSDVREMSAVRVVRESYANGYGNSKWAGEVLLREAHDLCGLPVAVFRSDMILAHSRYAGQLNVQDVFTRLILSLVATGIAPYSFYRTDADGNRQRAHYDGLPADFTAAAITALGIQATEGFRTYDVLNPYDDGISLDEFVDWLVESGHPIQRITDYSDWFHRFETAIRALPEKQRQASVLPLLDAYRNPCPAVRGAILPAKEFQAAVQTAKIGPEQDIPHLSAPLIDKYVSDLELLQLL

Row | SMILES | whole-cell aldehyde formation [1] | whole-cell alcohol oxidation [2] | also measured
1 | O=C(O)c1ccc(O)cc1 [4 a, p-hydroxybenzoic acid] | CAR‐SFP/E. coli RARE, from p‐hydroxybenzoic acid, produced a good yield of p‐hydroxybenzaldehyde |  | 
2 | O=C(O)c1ccccc1 [4 b, benzoic acid] | reduction of benzoic acid to benzaldehyde catalysed by CAR‐SFP/E. coli RARE |  | 
3 | OCc1ccc(O)cc1 [6 a, p-hydroxybenzyl alcohol] |  | whole cell HMFO catalysed oxidation of benzyl alcohol and p‐hydroxybenzyl alcohol | 
4 | OCc1ccccc1 [6 b, benzyl alcohol] |  | whole cell HMFO catalysed oxidation of benzyl alcohol and p‐hydroxybenzyl alcohol | 
5 | O=C(O)/C=C/c1ccc(O)cc1 [compound 5, p-coumaric acid] |  |  | whole-cell aldehyde formation [3]: FCS‐ECH/E. coli RARE, starting from p‐coumaric acid
